Reference: the CheMixHub ionic liquid set

Experiment: xn = mol fraction of the nth substance listed

CCCCCCCC(=O)[O-].c1c[nH+]c[nH]1 + CCCCCCCCO
101.3 kPa
Conditions | viscosity [mPa·s]
293.15 K, x2 = 0.4 | 39.42
293.15 K, x2 = 0.6005 | 24
298.15 K, x2 = 0.4 | 33.3
298.15 K, x2 = 0.5007 | 25.9
298.15 K, x2 = 0.6005 | 20.3
298.15 K, x2 = 0.8997 | 9.1
303.15 K, x2 = 0.6005 | 17.2
308.15 K, x2 = 0.1011 | 40.69
308.15 K, x2 = 0.6999 | 11.72
313.15 K, x2 = 0.6005 | 12.3
318.15 K, x2 = 0.1011 | 27.68
318.15 K, x2 = 0.799 | 6.7
318.15 K, x2 = 0.8997 | 5.38
323.15 K, x2 = 0.1011 | 22.9
323.15 K, x2 = 0.2991 | 17.1
323.15 K, x2 = 0.8997 | 4.82

CC1=CCC(C(C)C)=CC1 + CCCCCCCC[N+](CCCCCCCC)(CCCCCCCC)CCCCCCCC.[Br-] + [Cl-].[Cl-].[Co+2]
Conditions | viscosity [mPa·s]
296.1 K, 101.3 kPa, x2 = 0.4, x3 = 0.2 | 120000

CCCCCCCCn1cc[n+](C)c1C.F[P-](F)(F)(F)(F)F + CCCCCCCC[n+]1ccn(C)c1.F[P-](F)(F)(F)(F)F
100 kPa, x2 = 0.5
Conditions | viscosity [mPa·s]
333.15 K | 90.3
343.15 K | 60.9
353.15 K | 44.5

O=C1c2ccccc2C(=O)C1(O)O + CCCC[N+](CCCC)(CCCC)CCCC.O=S(=O)([O-])O
100 kPa, x2 = 0.571
Conditions | electrical conductivity [S/m] | viscosity [mPa·s]
293.15 K | 2.5e-06 | –
298.15 K | 7.8e-06 | –
303.15 K | 2.49e-05 | –
308.15 K | 6.58e-05 | –
313.15 K | 0.000153 | –
318.15 K | 0.000325 | –
323.15 K | 0.000614 | –
328.15 K | 0.00109 | 27000
333.15 K | 0.00183 | –
343.15 K | – | 6500

c1nnn[nH]1 + CCCC[P+](CCCC)(CCCC)CCCC.[Cl-] + [N]=O
303.15 K, 101.3 kPa
Conditions | viscosity [mPa·s]
x1 = 0.2439, x2 = 0.2439 | 3.1
x1 = 0.2518, x2 = 0.2518 | 4
x1 = 0.2597, x2 = 0.2597 | 4
x1 = 0.2723, x2 = 0.2723 | 6
x1 = 0.2867, x2 = 0.2867 | 9.2

CCCCC(=O)[O-].CC[NH+](CC)CCO + CCCC[n+]1ccn(C)c1.COP(=O)([O-])OC
101 kPa
Conditions | viscosity [mPa·s]
278.15 K, x1 = 0.6984 | 216.8
283.15 K, x1 = 0.4973 | 226.8
288.15 K, x1 = 0.1018 | 874
293.15 K, x1 = 0.1018 | 594
298.15 K, x1 = 0.1952 | 271.2
298.15 K, x1 = 0.5989 | 76
298.15 K, x1 = 0.7978 | 58.54
303.15 K, x1 = 0.1952 | 199.9
303.15 K, x1 = 0.3029 | 132
303.15 K, x1 = 1 | 37.12
308.15 K, x1 = 0.1952 | 150.4
308.15 K, x1 = 0.5989 | 46.85
313.15 K, x1 = 0.3029 | 79.5
313.15 K, x1 = 0.4003 | 58.57
313.15 K, x1 = 0.5989 | 37.62
313.15 K, x1 = 0.8868 | 26.19
318.15 K, x1 = 0.1952 | 90.1
318.15 K, x1 = 0.4003 | 47.13
318.15 K, x1 = 0.5989 | 30.62
318.15 K, x1 = 0.6984 | 26.67
323.15 K, x1 = 0.7978 | 19.5
328.15 K, x1 = 0.4973 | 25.35
328.15 K, x1 = 0.5989 | 21.04
328.15 K, x1 = 0.6984 | 18.34
333.15 K, x1 = 0.1018 | 62.36
333.15 K, x1 = 0.3029 | 34.47
333.15 K, x1 = 0.4003 | 26.54
333.15 K, x1 = 0.8868 | 12.34
333.15 K, x1 = 1 | 10.94
338.15 K, x1 = 0.1952 | 38.69
338.15 K, x1 = 0.4973 | 18.07
338.15 K, x1 = 0.5989 | 15.08
343.15 K, x1 = 0.4003 | 19.11
343.15 K, x1 = 0.4973 | 15.48
343.15 K, x1 = 0.6984 | 11.27
348.15 K, x1 = 0.5989 | 11.19
353.15 K, x1 = 0.5989 | 9.76
358.15 K, x1 = 0.8868 | 5.91
358.15 K, x1 = 1 | 5.15
363.15 K, x1 = 0.1018 | 21.41
363.15 K, x1 = 0.6984 | 6.56
373.15 K, x1 = 0.4003 | 8.6
373.15 K, x1 = 1 | 3.53
